# ChEMBL document CHEMBL1151828, “Screening of flavonoids as candidate antibiotics against Enterococcus faecalis” (J Nat Prod, 2009)
# Key:
# [1] = tested on: Enterococcus faecalis; experiment: Antimicrobial activity against Enterococcus faecalis after 20 hrs by broth microdilution method; format: functional
# [2] = tested on: Enterococcus faecalis; experiment: Antimicrobial activity against vancomycin-resistant Enterococcus faecalis after 20 hrs by broth microdilution method; format: functional
# [3] = Solubility at 1 mM; format: physicochemical; conditions: 1000 µM
SMILES,MIC [1],MIC [2],solubility [3]
O=C1C[C@@H](c2ccc(O)c(O)c2)Oc2cc(O)cc(O)c21 [ERIODICTYOL],256 µg/mL,512 µg/mL,
O=C1c2ccc(O)cc2OC(c2cc(O)c(O)c(O)c2)C1O (centres undefined) [DIHYDROBINETIN],256 µg/mL,> 512 µg/mL,Insoluble
O=C1c2c(O)cc(O)cc2O[C@H](c2ccc(O)c(O)c2)[C@H]1O [(+)-TAXIFOLIN],128 µg/mL,512 µg/mL,
O=C1C[C@@H](c2ccccc2)Oc2cc(O)cc(O)c21 [PINOCEMBRIN],> 512 µg/mL,,
O=C1CC(c2cccc(O)c2)Oc2ccccc21 (centres undefined) [3'-HYDROXYFLAVANONE],256 µg/mL,256 µg/mL,
O=C1CC(c2ccccc2O)Oc2ccc(O)cc21 (centres undefined),256 µg/mL,256 µg/mL,
O=C1C[C@@H](c2ccc(O)cc2)Oc2cc(O)cc(O)c21 [NARINGENIN],256 µg/mL,512 µg/mL,
